As a reminder, the IC50 is the concentration that inhibits the measured activity by half. Read a low IC50 as greater potency in that assay. A word on the inhibition: it is the change of the read-out against control, counted positive when it falls. A higher inhibition goes with strong suppression.

What all share (format): protein assay
The target of test [1] is T1, Phosphodiesterase 4 (Homo sapiens, UniProt P27815+Q08499+Q07343+Q08493). The experiment in a line: Inhibition of phosphodiesterase 4.
In test [2] the target is T1, Phosphodiesterase 4. The experiment in a line: Inhibition of Rolipram binding to PDE4 at 10 uM.
Test [3] concerns the target T1, Phosphodiesterase 4. Kind of test: Relative inhibition of phosphodiesterase 4 activity and Rolipram binding to PDE4.
Test [4] has as its target T1, Phosphodiesterase 4. Kind of test: (§1) Inhibition of Rolipram binding to PDE4 at 1 uM.
The target of test [5] is T1, Phosphodiesterase 4. Kind of test: Inhibition of Rolipram binding to PDE4.
For test [6], the target named is T1, Phosphodiesterase 4. Described as §1. This is another data set of the same source.
Test [7] concerns the target T1, Phosphodiesterase 4. The experiment in a line: Inhibition of Rolipram binding to PDE4 at 100 uM.

`CC1CCc2cc(F)cc3c(=O)c(C(=O)NCCc4ccncc4)cn1c23` (configuration not stated) registered an IC50 against Phosphodiesterase 4 [1] of 7 µM. At Phosphodiesterase 4 [2], this molecule showed an inhibition of 8%. The Ratio on Phosphodiesterase 4 [3] was less than 0.7.

Turning to `CCn1cc(C(=O)NC2CCc3cc(NC(C)=O)ccc32)c(=O)c2cnc(N3CCCC3)nc21` (configuration not stated), the IC50 against Phosphodiesterase 4 [1] came to 1.8 µM. For the same molecule, the inhibition on Phosphodiesterase 4 [4] worked out at 17%. The Ratio on Phosphodiesterase 4 [3] was less than 1.

Take `CCn1cc(C(=O)NCCc2ccncc2)c(=S)c2cc(C(F)(F)F)ccc21`: the IC50 against Phosphodiesterase 4 [1] is 0.46 µM. Further, on Phosphodiesterase 4 [4], the inhibition turned out to be 15%. For the same molecule, the Ratio on Phosphodiesterase 4 [3] is less than 0.46.

For `CCCn1cc(C(=O)NCCc2ccncc2)c(=O)c2cc(C(F)(F)F)ccc21.Cl`, the IC50 on Phosphodiesterase 4 [5] was 10 µM; at Phosphodiesterase 4 [1], 1.7 µM. On Phosphodiesterase 4 [3], the Ratio was 0.17.

With `CCn1cc(C(=O)N/N=C/c2ccccc2Cl)c(=O)c2cc(C(F)(F)F)ccc21`, the values for the IC50 on Phosphodiesterase 4 [6] and against Phosphodiesterase 4 [1] were 10 µM and 1.1 µM, respectively.

Consider `CCn1cc(C(=O)NC2CCc3cc(OC)c(OC)cc32)c(=O)c2cc(C(F)(F)F)ccc21` (configuration not stated), for which the IC50 on Phosphodiesterase 4 [1] came to 0.9 µM. The inhibition at Phosphodiesterase 4 [4] stood at 22%. For the same molecule, the Ratio at Phosphodiesterase 4 [3] was less than 0.9.

On Phosphodiesterase 4 [1], `CCn1cc(C(=O)N(C)CCc2ccccc2)c(=O)c2cc(C(F)(F)F)ccc21` came in with a half-maximal inhibitory concentration (IC50) of 49 µM. Further, the inhibition on Phosphodiesterase 4 [7] is 15%. Also, on Phosphodiesterase 4 [3], the Ratio is less than 0.49.

`CCn1cc(C(=O)NCCc2ccccc2)c(=O)c2cc(C(F)(F)F)ccc21`: the IC50 against Phosphodiesterase 4 [1] is 0.6 µM. The same molecule registered an inhibition at Phosphodiesterase 4 [4] of 8%. Moreover, the Ratio on Phosphodiesterase 4 [3] is less than 0.6.

For `CCn1cc(C(=O)NCCc2ccncc2)c(=O)c2cc3c(cc21)OCO3`, the IC50 at Phosphodiesterase 4 [1] was found to be 23 µM. The molecule further registered an inhibition at Phosphodiesterase 4 [2] of 31%. For the same molecule, the Ratio on Phosphodiesterase 4 [3] is 1.

Consider `CCn1cc(C(=O)NCCc2ccncc2)c(=O)c2cnc(N3CCCC3)nc21`, for which, at Phosphodiesterase 4 [1], the IC50 stood at 1.2 µM. The molecule further had an inhibition at Phosphodiesterase 4 [4] of 11%. Moreover, on Phosphodiesterase 4 [3], the Ratio is less than 1.

For the molecule `CCn1cc(C(=O)NCCc2ccncc2)c(=O)c2cc(C(F)(F)F)ccc21`, the 50% inhibitory concentration (IC50) against Phosphodiesterase 4 [1] worked out at 1.5 µM. Besides, the inhibition at Phosphodiesterase 4 [2] is 24%. Also, the Ratio on Phosphodiesterase 4 [3] is less than 0.15.
